The subject of data set [1] is A2AR StaR. Further details: method as in PMID 18664584, PMID 20624408. To be noted: cited from earlier work.
In data set [2] the test system is Non-transfected HEK293 cells. Description: cAMP assay in non-transfected HEK293 cells (negative control). The class given is cell-based, human. As to conditions: high concentrations of CGS-21680; probably endogenous A2AR. In general terms: Cyclic AMP is a second messenger, typically raised through Gs and lowered through Gi signalling.
The target in data set [3] is T1, A2AR (Homo sapiens, UniProt P29274).
T1 construct: Full length and wild type A2AR was expressed in yeast (Pichia pastoris) and Sf9; Strep-tag II (N); 8xHis (N); made in house; host or cells: Sf9 insect cells (baculovirus)
Briefly: STD-NMR binding and competition on purified native A2AR.

Data set [4] concerns the molecule itself. Description: SEC-MALS; peak 1 of the gel filtration of affinity-purified A2AR; Phenomenex Yarra SEC 3000-3 column, 20 °C, 0.3 ml/min; DDM/CHS micelles; dn/dc protein 0.185 ml/g, detergent 0.1618 ml/g. On the technique in general: In gel filtration, larger molecules generally elute earlier.

As a reminder, the stoichiometry N is the number of molecules, sites or subunits per partner or assembly.

For the molecule `CCNC(=O)[C@H]1O[C@@H](n2cnc3c(N)nc(NCCc4ccc(CCC(=O)O)cc4)nc32)[C@H](O)[C@@H]1O` [CGS-21680], in data set [1], the “Binding of agonists to StaR preparation in comparison to the wild type protein” value was “not able to bind correctly”. In addition, in data set [2], the cAMP production entry is “small increase in cAMP production”.

Consider `CCNC(=O)[C@H]1O[C@@H](n2cnc3c(N)ncnc32)[C@H](O)[C@@H]1O` [NECA], for which the “Binding of agonists to StaR preparation in comparison to the wild type protein” value in data set [1] is listed as “not able to bind correctly”.

As for `Cn1c(=O)c2c(ncn2C)n(C)c1=O` [caffeine, reference compound], in data set [3], the STD binding signal entry is given as “bound to A2AR” and the “STD binding signal in competition with ZM241385” value was “binding signal of caffeine disappears”.

B1: Wild type, full length human adenosine A2A receptor (receptor, UniProt P29274 1-412, looked up)
chain: MPIMGSSVYITVELAIAVLAILGNVLVCWAVWLNSNLQNVTNYFVVSLAAADIAVGVLAIPFAITISTGFCAACHGCLFIACFVLVLTQSSIFSLLAIAIDRYIAIRIPLRYNGLVTGTRAKGIIAICWVLSFAIGLTPMLGWNNCGQPKEGKNHSQGCGEGQVACLFEDVVPMNYMVYFNFFACVLVPLLLMLGVYLRIFLAARRQLKQMESQPLPGERARSTLQKEVHAAKSLAIIVGLFALCWLPLHIINCFTFFCPDCSHAPLWLMYLAIVLSHTNSVVNPFIYAYRIREFRQTFRKIIRSHVLRQQEPFKAAGTSARVLAAHGSDGEQVSLRLNGHPPGVWANGSAPHPERRPNGYALGLVSGGSAQESQGNTGLPDVELLSHELKGVCPEPPGLDDPLAQDGAGVS
modifications: N-glycans attached (sites not given)
notes: adenosine A2A receptor, human, full length, wild type; Peak 2 of the gel filtration also holds a faster band consistent with a degradation product; also called native A2AR
On to B1, for which, in data set [4], the “stoichiometry N” value was roughly 5.
